Source: patent publication US9839618B2, “Compositions and methods relating to proliferative diseases” (The Penn State Research Foundation, priority 2010, dated 2017)
“Also recorded” adds a separate entry of the source.

Tests used:
[1] = system: Prostate (PC-3) cancer cell line; test: MTS assay viability IC50, PC-3; type: cell-based; conditions: Table 5
Protocol: Dehydroabietylamine, its N-substituted derivatives and the corresponding dihydroabietylamine and its N-substituted derivatives are tested for their capability to inhibit cell growth of cancer cell lines, including melanoma (UACC 903, 1205Lu), breast (MCF-7), fibrosarcoma (HT-1080), colon (Caco-2), and prostate (PC-3) cancer cell lines. Viability and IC50 of normal human fibroblasts and cell lines from melanoma and other malignancies following treatment with all the agents are measured using the MTS assay (Promega, Madison, Wis.). Human fibroblast FF2441 cells, metastatic melanoma cell lines 1205 Lu and UACC 903 as well as cancer cell lines representing sarcoma (HT-1080), prostate (PC-3, LNCaP), breast (MCF-7) and lung (A-549) are maintained in DMEM (Invitrogen, Carlsbad, Calif.) supplemented with 10% FBS (Hyclone, Logan, Utah) in a 5% CO2 atmosphere, humidified 37° C. incubator. 5×10^3 cells per well in 100 μL of media are plated and grown in a 96-well plate for 48 to 72 h and treated with either DMSO vehicle control or 0.62 to 40 μmol/L for 24, 48 or 72 h. IC50 values for each compound in […] for respective cell lines are measured from three independent experiments using GraphPad Prism version 4.01 (GraphPad Software, La Jolla, Calif.). FIG. 52 is a graph showing IC50 values for leelamine and compounds 4a, 4b and 5a in treated fibroblasts (FF2441) compared to melanoma cells. Selectivity ratio here is defined as ratio of activity against fibroblasts compared to activity against melanoma cells. Leelamine is relatively selective with a ratio of >6 and >4 for UACC903 and 1205Lu melanoma cells. The selectivity ratio of compound 4a is ˜4 and ˜3 for UACC903 and 1205Lu and for compound 4b is ˜4 for both cell lines. The selectivity ratio of compound 5a is ˜4 for UACC903 and >2 for 1205Lu cells.

[2] = system: PI3K/Akt signaling pathway; test: Western blot, PI3K/Akt pathway; type: cell-based, human; conditions: for PI3K/AKT pathway (pAKT, pPRAS40, cyclin D1): Example 8, 24 hours, actives 3-5 μmol/L, inactives 30-50 μmol/L
Protocol: For Western blot analysis, cell lysates are harvested by addition of RIPA lysis buffers containing 25 mM Tris.HCl pH 7.6, 150 mM NaCl, 1% NP-40, 1% sodium deoxycholate, 0.1% SDS, 10 mM EDTA, 1 mM sodium orthovanadate, 0.1 mM sodium molybdate, 1 mM phenylmethylsulfonyl fluoride, 20 μg/mL aprotinin, and 5 μg/mL leupeptin. The cell lysates are harvested and processed as described in Madhunapantula, S. V. et al., Cancer Res, 2007, 67:3626-36. Treatment conditions: 1-1.5×10^6 melanoma cells are plated in 100 mm culture dishes, 48 h later, treated with leelamine (3-6 μmol/L) for 3 to 24 hours. Protein lysates are collected for Western blotting. The blots are probed with antibodies according to each supplier's recommendations: antibodies to total Akt, phospho-Akt (Ser473), total PRAS40, phospho-PRAS40 (Thr246), total CREB, phospho-CREB (Ser133), phospho-p70 S6 kinase (Thr389), total Erk1/2, phospho-Erk1/2 (Thr202/Tyr 204), total CDK2, phospho-CDK2 (Thr160), phospho-Rb (Ser807/811), total Stat, phospho-Stat1 (Tyr701), Phospho-Stat-2(Tyr690), Phospho-Stat3(Ser727), phospho-Stat3(Tyr705) and cleaved PARP from Cell Signaling Technology (Danvers, Mass.); total PRAS40 from Invitrogen (Carlsbad, Calif.); cyclin D1, Bcl-2, α-enolase and secondary antibodies conjugated with horseradish peroxidase from Santa Cruz Biotechnology (Santa Cruz, Calif.). Immunoblots are developed using the enhanced chemiluminescence (ECL) detection system (Thermo Fisher Scientific, Rockford, Ill.). Intensity of protein bands is quantified using ImageJ software.
For Western blot analysis, 1×10^6 melanoma cells are plated in 100 mm culture dishes, 48 hours later, treated with empty liposomes or Nanolipolee-007 (3-6 μmol/L) for 3 to 24 hours. Protein lysates collected for Western blotting. The cell lysates are harvested in an RIPA lysis buffer containing protease and phosphatases inhibitors (Pierce Biotechnology, Rockford, Ill.). Blots are probed with antibodies according to each supplier's recommendations: antibodies to total Akt, phospho-Akt (Ser473), total PRAS40, phospho-PRAS40 (Thr246), total Bad, pBad (Ser 112) total Erk1/2, phospho-Erk1/2 (Thr202/Tyr 204), total CDK2, phospho-CDK2 (Thr160), phospho-Rb (Ser807/811), total Stat, phospho-Stat3 (Tyr705), caspase-3 and cleaved PARP from Cell Signaling Technology (Danvers, Mass.); total PRAS40 from Invitrogen (Carlsbad, Calif.); cyclin D1, α-enolase and secondary antibodies conjugated with horseradish peroxidase from Santa Cruz Biotechnology (Santa Cruz, Calif.). Immunoblots are developed using the enhanced chemiluminescence (ECL) detection system (Thermo Fisher Scientific, Rockford, Ill.). Intensity of protein bands is quantified using ImageJ software.
Cell lysates are harvested by addition of RIPA lysis buffers containing 25 mM Tris*HCl pH 7.6, 150 mM NaCl, 1% NP-40, 1% sodium deoxycholate, 0.1% SDS, 10 mM EDTA, 1 mM sodium orthovanadate, 0.1 mM sodium molybdate, 1 mM phenylmethylsulfonyl fluoride, 20 μg/mL aprotinin, and 5 μg/mL leupeptin. The cell lysates are harvested and processed as described. […] Protein lysates collected for Western blotting. […] Intensity of protein bands is quantified using ImageJ software. […]

| Compound | IC50 [1] | PI3K/AKT pathway (pAKT, pPRAS40, cyclin D1) [2] | PI3 kinase pathway signaling ([2]; 3 to 6 μmol/L for 3 to 24 hours, UACC 903 and 1205 Lu) |
| --- | --- | --- | --- |
| CC(C)c1ccc2c(c1)CCC1[C@](C)(CNC(=O)C(F)(F)F)CCC[C@]21C (stereo partly drawn) [Compound 5a, N-{[(1R,4aS)-1,4a-dimethyl-7-(propan-2-yl)-1,2,3,4,4a,9,10,10a-octahydrophenanthren-1-yl]methyl}-2,2,2-trifluoroacetamide] | 4.66 ± 0.55 µM | decrease pAKT, pPRAS40 and cyclin D1 |  |
| CC(C)c1ccc2c(c1)CCC1[C@](C)(CN)CCC[C@]21C (stereo partly drawn) [Leelamine, [(1R,4aS)-1,4a-dimethyl-7-(propan-2-yl)-1,2,3,4,4a,9,10,10a-octahydrophenanthren-1-yl]methanamine] | 4.85 ± 1.09 µM | highly effective in abolishing activation of AKT pathway; also recorded: decrease pAKT, pPRAS40 and cyclin D1 | decrease activity |
| CC(C)C1=CC2=CCC3[C@](C)(CN)CCC[C@]3(C)C2CC1 (stereo partly drawn) [Compound 4a, {[(1R,4aR)-1,4a-dimethyl-7-(propan-2-yl)-1,2,3,4,4a,4b,5,6,10,10a-decahydrophenanthren-1-yl]methyl}amine] | 9.73 ± 1.04 µM | decrease pAKT, pPRAS40 and cyclin D1 |  |
| CC(C)C1=CC2=CCC3[C@](C)(CCC[C@@]3(C)C(=O)O)C2CC1 (stereo partly drawn) [Abietic acid, (1R,4aR)-1,4a-dimethyl-7-(propan-2-yl)-1,2,3,4,4a,4b,5,6,10,10a-decahydrophenanthrene-1-carboxylic acid, reference compound] | > 100 µM | unable to affect |  |
